Several values for one entry are separate records, joined by “and”; a condition that tells them apart may be missing. Identical values can stand only once.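 Interpolation was linear, between the two tested concentrations surrounding the appropriate level; five concentrations were tested over 48 hours in 96-well plates. GI50 marks 50% less growth. TGI denotes the concentration required for complete inhibition of growth.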
Tests used:
Assay in all cases: DTP human tumour cell line panel, 48 h
[1] = system: UO-31 renal
[2] = system: HOP-92 NSCLC
[3] = system: ACHN renal
[4] = system: HOP-62 NSCLC
[5] = system: SW-620 colon
[6] = system: NCI-H23 lung
[7] = system: COLO 205 colon
[8] = system: LOX IMVI melanoma
[9] = system: RXF 393 renal
[10] = system: SK-MEL-5 melanoma

| Structure (SMILES) | TGI [1] | TGI [2] | TGI [3] | TGI [4] | TGI [5] | TGI [6] | TGI [7] | TGI [8] | TGI [9] | TGI [10] | GI50 [1] | GI50 [2] | GI50 [3] | GI50 [4] | GI50 [5] | GI50 [6] | GI50 [7] | GI50 [8] | GI50 [9] | GI50 [10] |
| --- | --- | --- | --- | --- | --- | --- | --- | --- | --- | --- | --- | --- | --- | --- | --- | --- | --- | --- | --- | --- |
| CS/C(c1ccccc1)=[N+](/C)[O-] | > 100 µM | > 100 µM | > 100 µM | > 100 µM | > 100 µM | > 100 µM | > 61.5 µM | > 58.2 µM | > 100 µM | > 100 µM |  |  |  |  |  |  |  |  |  |  |
| O=C(/C=C/c1ccc(C(F)(F)F)cc1)c1ccc(Nc2nc(NCCO)nc(N3CCOCC3)n2)cc1 | 2.58 µM | 9.2 µM | 3.86 µM | 6.57 µM | 4.05 µM | 6.97 µM | 4.08 µM | 3.11 µM | 3.26 µM | 10.2 µM | 1.31 µM | 2.48 µM | 1.86 µM | 2.22 µM | 1.92 µM | 2.55 µM | 2.09 µM | 1.67 µM | 1.63 µM | 3.16 µM |
| CCCCCN(CCCCC)CC(O)c1cc2c(c3ccccc13)CCCC2 (stereo unspecified) | 15.6 µM and 22.1 µM | 8.94 µM and 17.1 µM | 17.9 µM and 22.6 µM | 12.9 µM and 25.7 µM | 19.4 µM | 14.7 µM and 24.6 µM | 13.8 µM and 80.5 µM | 14.8 µM and 28.1 µM | 6.71 µM and 7.13 µM | 5.01 µM and 14.1 µM | 3.79 µM and 6.15 µM | 2.5 µM and 3.53 µM | 5.03 µM and 8.43 µM | 3.62 µM and 12.1 µM | 5.99 µM | 3.72 µM and 5.94 µM | 3.4 µM and 13.7 µM | 3.71 µM and 4.93 µM | 2.31 µM and 2.88 µM | 2.08 µM and 3.98 µM |
| COC(=O)[C@@H](C)C[C@H](Cc1ccccc1)NC(=O)c1csc([C@@H](C[C@H](C(C)C)N(C)C(=O)C2(NC(=O)[C@H]3CCCCN3C)CC2)OC(C)=O)n1 | > 33.3 µM | 5.29 µM | > 33.3 µM | > 33.3 µM | > 33.3 µM | > 33.3 µM | 0.0644 µM | > 33.3 µM |  |  | 1.3 µM | 0.00434 µM and 0.00333 µM |  |  | 0.00317 µM and 0.00333 µM | 0.0172 µM and 0.00333 µM | 0.00346 µM | 0.00947 µM and 0.00333 µM | 0.0216 µM | 0.00374 µM and 0.00333 µM |
| O=C(CN1C(=O)c2ccccc2C1=O)C(O)CN1C(=O)c2ccccc2C1=O (stereo unspecified) | > 100 µM | > 100 µM | 49.3 µM | 41.9 µM | > 100 µM | > 100 µM | > 100 µM | > 100 µM | > 100 µM | > 100 µM |  |  |  |  |  |  |  |  |  |  |
| Clc1ccc2c(c1)-c1ccccc1C1=NCCN12 | 2.8 µM | 3.29 µM | 9.3 µM | 6.02 µM | 6.53 µM | 4.75 µM | 3.54 µM | 3.65 µM | 2.98 µM | 2.94 µM | 1.28 µM | 1.19 µM | 1.12 µM | 1.98 µM | 1.11 µM | 1.85 µM | 1.61 µM | 1.59 µM | 1.51 µM | 1.56 µM |
| O=C(CCCCCCC(=O)Nc1ccc2c(c1)/C(=C/c1ccc[nH]1)C(=O)N2)NO | > 100 µM | 2.76 µM | 4.67 µM | 4.49 µM | > 21.9 µM | 14.8 µM | 1.4 µM | 2.08 µM | 3.66 µM | 1.41 µM | 0.963 µM | 0.317 µM | 0.904 µM | 0.353 µM | 0.271 µM | 1.88 µM | 0.245 µM | 0.548 µM | 0.487 µM | 0.24 µM |
| NCCCCN(Cc1nc2ccccc2[nH]1)[C@H]1CCCc2cccnc21 | > 72.7 µM | 27.1 µM | > 100 µM | > 100 µM | > 100 µM | > 100 µM | 26.2 µM | 38.2 µM | 66.8 µM | 27.8 µM | 12 µM | 2.12 µM | 26.3 µM | 11.4 µM | 12.6 µM | 20.4 µM | 7.65 µM | 12 µM | 13.5 µM | 14.5 µM |
| COc1ccccc1/C=N/N=C(\N)NO | > 100 µM | 65.6 µM | > 100 µM | 76.6 µM | > 100 µM | > 100 µM | > 100 µM | > 100 µM | > 100 µM | 25.6 µM |  |  |  |  |  |  |  |  |  |  |
| O=C(N/N=C\c1ccc(N(CCCl)CCCl)cc1Cl)c1cccnc1 | 52.9 µM | 69.1 µM | > 100 µM | > 78 µM | > 100 µM | 54.9 µM | 38.1 µM | 52.6 µM | 51.9 µM | 34.8 µM | 14.6 µM | 15.1 µM | 28.5 µM | 13.6 µM | 19.2 µM | 9.59 µM | 8.5 µM | 16.1 µM | 14.2 µM | 13.3 µM |
| c1ccc(SC(CCCCOC2CCCCO2)Sc2ccccc2)cc1 (stereo unspecified) | 76.5 µM | > 100 µM | > 100 µM | > 100 µM | > 100 µM | > 100 µM | > 100 µM | > 100 µM | > 100 µM | > 100 µM |  |  |  |  |  |  |  |  |  |  |
| COc1cccc2c(=O)c3c(sc12)c(NCCN(C)C)nc1ccccc13 | 2 µM | 3.53 µM | 2.22 µM | 2.66 µM | 2.3 µM | 3.16 µM | 2.86 µM | 2.76 µM | 2.65 µM | 3.17 µM | 0.461 µM | 1.03 µM | 1 µM | 1.2 µM | 0.76 µM | 1.51 µM | 1.2 µM | 1.33 µM | 1.29 µM | 1.71 µM |

Reference: PubChem BioAssay (NCI)
